Experimental findings from ChEMBL document CHEMBL1208678, “Synthesis of some new 4(3H)-quinazolinone-2-carboxaldehyde thiosemicarbazones and their metal complexes and a study on their anticonvulsant, analgesic, cytotoxic and antimicrobial activities - part-1” (Eur J Med Chem, 2010) are described below.

Values after ≈ are worked out from the molar mass of the structure shown. Active and inactive are the calls of the source.

Data set [1] deals with Mus musculus. Put plainly: Acute toxicity in mouse assessed as mortality up to 1200 mg/kg, po. The format is organism-based. The conditions noted are these: in vivo. Also on record: dose 1200 mg/kg, route oral.
Data set [2] concerns Bacillus subtilis. Put plainly: Antibacterial activity against Bacillus subtilis ATCC 6633 at 100 ug after 24 hrs by paper disc method. In kind it is functional. The conditions noted are these: ATCC 6633, 24 h, read-out: IZ.
The test system of data set [3] is Staphylococcus aureus. Put plainly: Antibacterial activity against Staphylococcus aureus ATCC 6538 at 100 ug after 24 hrs by paper disc method. The conditions noted are these: ATCC 6538, 24 h, read-out: IZ. The format is functional.
In data set [4] the test system is Escherichia coli. Put plainly: Antibacterial activity against Escherichia coli ATCC 7839 at 100 ug after 24 hrs by paper disc method. The format is functional. The conditions noted are these: ATCC 7839, 24 h, read-out: IZ.
The test system of the next data set is Pseudomonas aeruginosa. Kind of data set: Antibacterial activity against Pseudomonas aeruginosa ATCC 9027 at 100 ug after 24 hrs by paper disc method. The format is functional. The conditions noted are these: ATCC 9027, 24 h, read-out: IZ.
In the next data set the test system is Aspergillus ochraceus. Kind of data set: Antifungal activity against Aspergillus ochraceus Wilhelm at 100 ug after 24 hrs by paper disc method. The format is functional. The conditions noted are these: for zone of inhibition at 100 µg/disc: read-out: IZ.
In data set [5] the test system is Fusarium oxysporum. Put plainly: Antifungal activity against Fusarium oxysporum at 100 ug after 24 hrs by paper disc method. In kind it is functional. The conditions noted are these: for zone of inhibition at 100 µg/disc: read-out: IZ.
The test system of data set [6] is Fusarium oxysporum. Kind of data set: […] activity against Fusarium oxysporum after 24 hrs by twofold serial dilution method. In kind it is functional.
For data set [7], the system named is Rattus norvegicus. Put plainly: Anticonvulsant activity against pentylenetetrazole-induced seizure in Wistar rat assessed as shock latency time at 50 mg/kg, ip administered 45 mins before pentylenetetrazole challenge (reference value: 118 seconds). The conditions noted are these: route intraperitoneal. The format is functional.
Data set [8] relates to Rattus norvegicus. Kind of data set: Anticonvulsant activity against pentylenetetrazole-induced seizure in Wistar rat assessed as duration of seizure at 50 mg/kg, ip administered 45 mins before pentylenetetrazole challenge (reference value: 312 seconds). The format is functional. The conditions noted are these: route intraperitoneal.
The test system of data set [9] is Rattus norvegicus. Put plainly: Anticonvulsant activity in Wistar rat assessed as protection against pentylenetetrazole-induced seizure at 50 mg/kg, ip administered 45 mins before pentylenetetrazole challenge. In kind it is functional, organism-based. Set-up: dose 50 mg/kg.
Data set [10] deals with Mus musculus. Put plainly: Analgesic activity in Swiss albino mouse assessed as reaction time at 50 mg/kg, ip after 0.5 hrs by hotplate method (reference value: 7.4 seconds). The conditions noted are these: route intraperitoneal. The format is functional.
Data set [11] has as its system Mus musculus. Put plainly: Analgesic activity in Swiss albino mouse assessed as reaction time at 50 mg/kg, ip after 1 hr by hotplate method (reference value: 7.5 seconds). The format is functional. The conditions noted are these: route intraperitoneal.
Data set [12] in a line: Cytotoxicity against mouse EAC cells assessed as cell death at 25 ug/ml after 2 hrs by Trypan blue exclusion method. In kind it is functional, Ehrlich.
Data set [13] can be described thus: Cytotoxicity against mouse EAC cells assessed as cell death at 50 ug/ml after 2 hrs by Trypan blue exclusion method. The format is functional, Ehrlich.
Data set [14] can be described thus: Cytotoxicity against mouse EAC cells assessed as cell death at 100 ug/ml after 2 hrs by Trypan blue exclusion method. The format is functional, Ehrlich.
Data set [15] has as its system Rattus norvegicus. Put plainly: Anticonvulsant activity against pentylenetetrazole-induced seizure in Wistar rat assessed as shock latency time at 2 mg/kg, ip administered 45 mins before pentylenetetrazole challenge (reference value: 118 seconds). In kind it is functional. The conditions noted are these: route intraperitoneal.
Data set [16] relates to Rattus norvegicus. Put plainly: Anticonvulsant activity against pentylenetetrazole-induced seizure in Wistar rat assessed as duration of seizure at 2 mg/kg, ip administered 45 mins before pentylenetetrazole challenge (reference value: 312 seconds). The format is functional. The conditions noted are these: route intraperitoneal.
Data set [17] deals with Rattus norvegicus. Kind of data set: Anticonvulsant activity in Wistar rat assessed as protection against pentylenetetrazole-induced seizure at 2 mg/kg, ip administered 45 mins before pentylenetetrazole challenge. The format is functional, organism-based. Also on record: dose 2 mg/kg.
Data set [18] has as its system Mus musculus. Put plainly: Analgesic activity in Swiss albino mouse assessed as reaction time at 2 mg/kg, ip after 0.5 hrs by hotplate method (reference value: 7.4 seconds). The format is functional. The conditions noted are these: route intraperitoneal.
Data set [19] deals with Mus musculus. Kind of data set: Analgesic activity in Swiss albino mouse assessed as reaction time at 2 mg/kg, ip after 1 hr by hotplate method (reference value: 7.5 seconds). The format is functional. The conditions noted are these: route intraperitoneal.
The test system of data set [20] is Bacillus subtilis. Kind of data set: Antibacterial activity against Bacillus subtilis ATCC 6633 after 24 hrs by twofold serial dilution method. In kind it is functional. The conditions noted are these: ATCC 6633, 24 h.
Data set [21] relates to Staphylococcus aureus. Put plainly: Antibacterial activity against Staphylococcus aureus ATCC 6538 after 24 hrs by twofold serial dilution method. The conditions noted are these: ATCC 6538, 24 h. The format is functional.
Data set [22] relates to Escherichia coli. Put plainly: Antibacterial activity against Escherichia coli ATCC 7839 after 24 hrs by twofold serial dilution method. The format is functional. The conditions noted are these: ATCC 7839, 24 h.

In the case of `CCNC(=S)N/N=C/c1nc2ccc(I)cc2c(=O)n1-c1ccccc1`, the Activity result in the data set with Mus musculus [1] is reported as “Non-toxic”. The zone of inhibition at 100 µg/disc in the data set on Bacillus subtilis [2] came to 0 mm; in the data set with Staphylococcus aureus [3], 0 mm; in the data set on Escherichia coli [4], 0 mm; in the data set on Pseudomonas aeruginosa, 0 mm; in the data set on Aspergillus ochraceus, 0 mm; in the data set on Fusarium oxysporum [5], 15 mm.

As usually defined, the MIC is the smallest concentration in the dilution series that meets the test's criterion for growth inhibition. Read a high MIC as a need for much substance. As for `CNC(=S)N/N=C/c1nc2ccc(I)cc2c(=O)n1-c1ccccc1`, the Activity result with Mus musculus [1] was “Non-toxic”. The molecule also gave a minimum inhibitory concentration (MIC) with Fusarium oxysporum [6] of 6 µg/mL (≈ 13 µM).

For the molecule NYSTATIN, the inhibition zone (IZ) was 12 mm in the data set with Aspergillus ochraceus and 20 mm in the data set on Fusarium oxysporum [5].

For the molecule `CCNC(=S)N/N=C/c1nc2ccc(I)cc2c(=O)n1-c1ccc(F)cc1`, the Activity result in the data set with Mus musculus [1] is on record as “Non-toxic”. The values for the Time in the data set with Rattus norvegicus [7] and in the data set with Rattus norvegicus [8] were 280 s and 520 s, respectively. Also, the result in the data set with Rattus norvegicus [9] was inactive.

In the case of `CCn1cc(C(=O)O)c(=O)c2cc(F)c(N3CCNCC3)cc21` [NORFLOXACIN], the zone of inhibition at 100 µg/disc worked out at 35 mm in the data set on Bacillus subtilis [2], 27 mm in the data set on Staphylococcus aureus [3], 17 mm with Escherichia coli [4] and 15 mm with Pseudomonas aeruginosa.

Consider `O=c1c2cc(I)ccc2nc(/C=N/NC(=S)Nc2ccccc2)n1-c1ccc(F)cc1`, for which the Activity entry is reported as “Non-toxic” in the data set with Mus musculus [1], 0% in [12], 0% in [13] and 0% in data set [14]. The Time is reported as 120 s with Rattus norvegicus [7], 350 s with Rattus norvegicus [8], 8 s with Mus musculus [10] and 13.5 s with Mus musculus [11]. The outcome in the data set on Rattus norvegicus [9] was inactive. Further, the zone of inhibition at 100 µg/disc turned out to be 0 mm in the data set on Bacillus subtilis [2]; 0 mm with Staphylococcus aureus [3]; 8 mm with Escherichia coli [4]; 0 mm with Pseudomonas aeruginosa; 0 mm in the data set with Aspergillus ochraceus; 25 mm with Fusarium oxysporum [5].

For `CN1C(=O)CN=C(c2ccccc2)c2cc(Cl)ccc21` [DIAZEPAM], the Time is 3600 s in the data set with Rattus norvegicus [15], 0 s in the data set on Rattus norvegicus [16], 62.9 s with Mus musculus [18] and 65.9 s in the data set with Mus musculus [19]. In addition, the outcome in the data set on Rattus norvegicus [17] was Active.

For the molecule `O=c1c2cc(I)ccc2nc(/C=N/NC(=S)Nc2ccccc2)n1-c1ccccc1`, the Activity entry in the data set on Mus musculus [1] is on record as “Non-toxic”. Moreover, the Time is listed as 10.2 s in the data set with Mus musculus [10] and 19.2 s in the data set on Mus musculus [11].

Take `CNC(=S)N/N=C/c1nc2ccc(I)cc2c(=O)n1-c1ccc(F)cc1`: the Activity entry in the data set on Mus musculus [1] is reported as “Non-toxic”; in [12], 0%; in [13], 0%; in data set [14] it was 20%. Besides, the Time in the data set on Rattus norvegicus [7] is on record as 380 s; in the data set with Rattus norvegicus [8] it was 580 s; in the data set on Mus musculus [10], 11.1 s; in the data set with Mus musculus [11] it was 19.2 s. Further, in the data set with Rattus norvegicus [9], the result was inactive.

With `NC(=S)N/N=C/c1nc2ccc(I)cc2c(=O)n1-c1ccccc1`, in the data set with Mus musculus [1], the Activity result is on record as “Non-toxic”. The Time is given as 18.6 s in the data set with Mus musculus [10] and 26.6 s in the data set on Mus musculus [11]. The zone of inhibition at 100 µg/disc with Bacillus subtilis [2] came to 9 mm; in the data set on Staphylococcus aureus [3], 8 mm; with Escherichia coli [4] it was 0 mm; in the data set on Pseudomonas aeruginosa, 0 mm; in the data set on Aspergillus ochraceus, 0 mm; with Fusarium oxysporum [5], 23 mm. Moreover, the MIC was 100 µg/mL (≈ 223 µM) with Bacillus subtilis [20], 100 µg/mL (≈ 223 µM) in the data set on Staphylococcus aureus [21], 100 µg/mL (≈ 223 µM) with Escherichia coli [22] and 12.5 µg/mL (≈ 27.8 µM) against Fusarium oxysporum [6].

Take `NC(=S)N/N=C/c1nc2ccc(I)cc2c(=O)n1-c1ccc(F)cc1`: the Activity result with Mus musculus [1] is “Non-toxic”; in [12] it was 0%; in [13], 10%; in [14], 40%. Besides, the Time in the data set on Rattus norvegicus [7] is 660 s; in the data set on Rattus norvegicus [8] it was 760 s; in the data set on Mus musculus [10], 19.2 s; in the data set on Mus musculus [11] it was 27.2 s. Besides, in the data set on Rattus norvegicus [9], the outcome was inactive. The MIC in the data set on Fusarium oxysporum [6] is 12.5 µg/mL (≈ 26.8 µM).

With `CC[C@H]1OC(=O)[C@H](C)[C@@H](O[C@H]2C[C@@](C)(OC)[C@@H](O)[C@H](C)O2)[C@H](C)[C@@H](O[C@@H]2O[C@H](C)C[C@H](N(C)C)[C@H]2O)[C@](C)(O)C[C@@H](C)C(=O)[C@H](C)[C@@H](O)[C@]1(C)O` [ERYTHROMYCIN], the zone of inhibition at 100 µg/disc in the data set on Bacillus subtilis [2] stood at 30 mm; in the data set with Escherichia coli [4], 15 mm; with Pseudomonas aeruginosa, 16 mm.
